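Protocol summary: plate cells (96-well), add compound at 5 concentrations, incubate 48 h, interpolate endpoints linearly. Here, GI50 denotes the concentration required for 50% inhibition of growth. TGI denotes the concentration required for complete inhibition of growth.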
What was measured:
Assay in all cases: NCI anticancer screen, dose series, 48 h
HS 578T breast = test system: HS 578T breast
U251 CNS = test system: U251 CNS
UO-31 renal = test system: UO-31 renal
SF-295 CNS = test system: SF-295 CNS
RXF 393 renal = test system: RXF 393 renal
SK-MEL-5 melanoma = test system: SK-MEL-5 melanoma
IGROV1 ovarian = test system: IGROV1 ovarian
EKVX NSCLC = test system: EKVX NSCLC
SR leukemia = test system: SR leukemia
KM12 colon = test system: KM12 colon

| SMILES | TGI (HS 578T breast) | TGI (U251 CNS) | TGI (UO-31 renal) | TGI (SF-295 CNS) | TGI (RXF 393 renal) | TGI (SK-MEL-5 melanoma) | TGI (IGROV1 ovarian) | TGI (EKVX NSCLC) | TGI (SR leukemia) | TGI (KM12 colon) | GI50 (HS 578T breast) | GI50 (U251 CNS) | GI50 (IGROV1 ovarian) | GI50 (SR leukemia) | GI50 (KM12 colon) |
| --- | --- | --- | --- | --- | --- | --- | --- | --- | --- | --- | --- | --- | --- | --- | --- |
| COC(=O)CC1c2ccccc2N2C(=O)Cc3c([nH]c4ccccc34)C12 (centres undefined) | 96.2 µM | > 100 µM | > 100 µM | > 100 µM | > 100 µM | > 100 µM | > 100 µM | > 100 µM | > 100 µM | > 100 µM | – | – | – | – | – |
| c1ccc([I+]c2ccccc2)cc1 | > 100 µM | > 100 µM | > 100 µM | > 100 µM | > 100 µM | > 100 µM | > 100 µM | > 100 µM | > 100 µM | > 100 µM | – | – | – | – | – |
| NS(=O)(=O)c1ccc(/C=C/c2ccc(O)cc2)cc1 | > 100 µM | > 100 µM | 36.2 µM | 65 µM | > 100 µM | 29 µM | 84.9 µM | 69.8 µM | 55.5 µM | 30 µM | 28.9 µM | 15 µM | 20.2 µM | 4.68 µM | 11.1 µM |
| CCOC(=O)/C=C(/C)Nc1nc2c(c(C(=O)OC)c1C#N)CCCC2 | > 100 µM | > 100 µM | > 100 µM | > 100 µM | > 100 µM | > 100 µM | > 100 µM | > 100 µM | > 100 µM | > 100 µM | – | – | – | – | – |
| Cc1nc2sccn2c1/C=C1/C(=O)Nc2cccc(Cl)c21 | > 100 µM | > 100 µM | > 100 µM | > 100 µM | > 100 µM | > 100 µM | > 100 µM | > 100 µM | > 100 µM | > 100 µM | – | – | – | – | – |
| COC(=O)/C=C1/OC(c2ccc(OC)cc2)=C(Cl)C1=O | 84 µM | 22.4 µM | 37.7 µM | 43.4 µM | 31.7 µM | 27.2 µM | 34.1 µM | 39.4 µM | 9.53 µM | 36.4 µM | – | – | – | – | – |
| CCOP(=O)(OCC)OC1c2[nH]cc(C(=O)OCc3ccccc3)c2-c2cc(C(=O)OC)[nH]c2C1OC (centres undefined) | > 100 µM | > 96.6 µM | > 59.1 µM | 28.8 µM | > 56.3 µM | > 82.8 µM | 31.6 µM | 70.7 µM | > 100 µM | > 92.6 µM | – | – | – | – | – |
| O=C(N/N=C/c1ccccc1)c1cccc2nc3ccccc3nc12 | > 72.9 µM | > 100 µM | > 100 µM | > 86.5 µM | > 100 µM | 18 µM | > 100 µM | > 100 µM | > 100 µM | > 100 µM | – | – | – | – | – |
| Cc1cc(S(=O)(=O)/N=C(\[N-]S(=O)(=O)c2cc(Cl)sc2Cl)[n+]2ccc(N(C)C)cc2)c(S)cc1Cl | > 100 µM | > 100 µM | 56 µM | > 100 µM | > 100 µM | > 100 µM | > 100 µM | > 100 µM | 98.2 µM | > 100 µM | – | – | – | – | – |
| CCOC(=O)c1nnc2c(C#N)c(-c3ccccc3)c(C)n2c1N | 85.7 µM | > 100 µM | > 100 µM | > 100 µM | > 100 µM | > 100 µM | 66.6 µM | > 100 µM | > 100 µM | > 100 µM | – | – | – | – | – |
| CCOC(=O)c1nc2ccc(C(F)(F)F)cc2nc1Oc1ccc(C(=O)OC)cc1 | > 100 µM | > 100 µM | > 100 µM | > 100 µM | > 100 µM | > 100 µM | > 100 µM | > 100 µM | > 100 µM | > 100 µM | – | – | – | – | – |
| BrCC[N+]12CC[N+](CCBr)(CC1)C2 | > 100 µM | > 100 µM | > 100 µM | > 100 µM | > 100 µM | > 100 µM | > 100 µM | > 100 µM | > 100 µM | > 100 µM | – | – | – | – | – |
| O=C(OCCNC(=O)N1CC1)OCCNC(=O)N1CC1 | > 10 µM | > 10 µM | > 10 µM | > 10 µM | > 10 µM | > 10 µM | > 10 µM | > 10 µM | > 10 µM | > 10 µM | – | – | – | – | – |
| CC1=C(C)SC(=C2Sc3nc(O)[nH]c(=O)c3S2)S1 | > 100 µM | > 100 µM | > 100 µM | > 100 µM | > 100 µM | > 100 µM | > 100 µM | > 100 µM | 79.9 µM | > 100 µM | – | – | – | – | – |
| C=C1C[C@H](O)[C@H](Br)C(C)(C)C12CCC(C)(Cl)C(Br)C2 (some centres undefined) | 23.6 µM | 8.91 µM | 17 µM | 8.13 µM | 10.6 µM | 12.2 µM | 18.8 µM | 1.61 µM | 19.7 µM | 9.88 µM | – | – | – | – | – |
| CCOc1cc2c(c(OCC)c1O)CC[C@@H]1[C@@H]2CC[C@]2(C)[C@@H](O)CC[C@@H]12 | 95.1 µM | – | 79.3 µM | 13.1 µM | 17.1 µM | 21.5 µM | > 100 µM | > 100 µM | 28 µM | 72.5 µM | – | – | – | – | – |

From PubChem BioAssay (NCI)
